The numbers were not newly measured in patent US6475716B1, “Method for preserving mammalian organs” (Biobank Co., Ltd., priority 2001, dated 2002), which cites them from elsewhere.

Structures are written as SMILES.

For the data set, the system named is cell membranes of the heart. The settings on record: heart exposed to low temperature of 4° C. or ischemic injury.

As for `OC[C@H]1O[C@H](O[C@H]2O[C@H](CO)[C@@H](O)[C@H](O)[C@H]2O)[C@H](O)[C@@H](O)[C@@H]1O` [trehalose], the “protection of cell membranes of the heart” value is listed as “had the ability to protect cell membranes of the heart”.
